Measured values taken from patent publication US6262095A, “Use of tricyclic derivatives of 1,4-dihydro-1,4-dioxo-1H-naphthalene, novel compounds obtained and their application in theraphy” (Laboratoire Innothera, priority 1995, dated 2001).

How the values were obtained:
[1] = tested on: dorsal cutaneous chamber in hamsters; assay: Dorsal cutaneous chamber in hamsters (microcirculation, histamine); format: in vivo; conditions: hamster, 28 mg/kg i.v. bolus, after histamine 1 mg/kg i.v.
Description: In the conscious animal, the arterial pressures are measured according to the classical method derived from Riva Rocci, by the analysis of the acoustical wave transmitted at the arterial level and transformed by a ceramic piezo transducer placed on the tail of the rat, downstream from a sleeve that is automatically inflated by a pressure generator. At the microcirculatory level, the variations in the sections of the veinules and arterioles are studied in vivo in the model of the dorsal cutaneous chamber of conscious hamsters, after a video microscopic recording (microscope Leitz Ergolux equipped with a halogen source for the illumination and its black-and-white CD video camera HPR 610) and computer analysis (software Visicap, Pack ICAP) of the images.
After anesthesia with sodium pentobarbital (60 mg/kg in i.p. administration), the back of the animal is shaved and hair is pulled so as to be able to put an observation chamber (Professor Gebhard, Heidelberg) on the back skin. The two parts of this chamber are sewn after careful removal of a certain level of skin thicknesses, which can impede the observation. A jugular catheter is placed for the i.v. administration of the products, 48 h after the operation.
The effect of the compounds on the hyperpermeability induced by inflammatory agents, such as histamine and bradykinin, is also studied after intravenous injection in a bolus in the model of the dorsal cutaneous chamber of hamsters and according to the method developed by Gimeno et al., described earlier ("A new technique using intravital videomicroscopy for macromolecular permeability measurement," 18th European Congress on Microcirculation, Rome, 1994) using videomicroscopy and image analysis by quantification of the distribution of the intra- and extravascular fluorescence of the fluorescent marker (FITC-Dextran) injected in a bolus through the jugular catheter (63 mg/kg for a volume defined at 1 mL/kg). The microscope is equipped with a fluorescence source and a combination of filters (excitation in the blue range 450-490 nm, and 515-nm stop filter).

[2] = tested on: basilar artery of rabbits; assay: Contraction of rabbit basilar artery under depolarizing hyperpotassic conditions; format: cell-based
Description: The contractile effects are measured in vitro under static conditions on vascular capacitance or resistance rings of saphenous, femoral, jugular, mesenteric, and caval veins . . . and on femoral, carotid, basilar, or mesenteric arteries, as well as the thoracic or abdominal aorta . . . in rats (Wistar, 200-250 g), rabbits (New Zealand, 2-2.5 kg), guinea pigs (Dunkin Hartley 250-300 g).
The rings are placed in a chamber for isolated organs (25 mL for capacitance vessels and 2.5 mL for resistance vessels according to Mulvany), and maintained under isometric conditions using two rigid threads inserted inside the vessel, avoiding causing damage to the endothelium. The vessels are bathed in a modified Krebs solution (in mM: NaCl=118; KCl=4.6; CaCl2 =2.5; MgSO4 =1.2; KH2 PO4 =1.17; NaHCO3 =25; glucose=11), continuously aerated using a gaseous mixture of 95% O2 and 5% Co2, at a pH=7.4, and regulated by thermostat at 37° C. The rings are adjusted to their optimal point as far as the tension-length relationship is concerned. […] The pharmacological studies are carried out after a few standardized preliminary contractile stimulations using a depolarizing solution (hyperpotassic type obtained by replacing NaCl with KCl in equimolar quantities), along with rinsings and periods of equilibration in a pure physiological solution. […]

[3] = tested on: hyperpermeability induced by histamine in rats; assay: Hyperpermeability induced by histamine in rats; format: in vivo, rat (Wistar); conditions: rat, oral 0.1 mg/kg, after 2 h, compared to the control group
Description: The vascular permeability is studied in vivo by measuring the extravasation of albumin, the quantity of which is determined using an albumin-binding dye (Evans blue).
The hyperpermeability is induced by the intradermal injection of a solution of histamine, bradykinin, or zymosan.
The technique is derived from that described by Beach & Steinetz, J. Pharmacol. Exp. Therap., 1961, Vol. 131: pp. 400-406.
The abdominal walls of the rats (Wistar, 200-230 g) are shorn 1 h before the start of the experiment. The product to be tested is injected by the intraperitoneal route or orally 1-4 h before the sacrifice. The rats are anesthetized with a halothane mixture. […]
At the site of the injection of the inflammatory agent, the skin is cut and placed into glass tubes with a ground[-glass] neck containing 3 mL of fuming hydrochloric acid. […] The optical densities are quantified by absorption spectrophotometry at a wavelength of 620 nm, against a blank [control] containing only dichloromethane. The averages of the optical densities of the different lots of treated or control animals are calculated, then a percentage of variation of the values corresponding to the treated [experimental] animals compared to those of the control animals is calculated.

O=C1c2ccccc2C(=O)c2sc(-c3ccco3)nc21 [Example n, 4,9-Dihydro-4,9-dioxo-2-(2-furyl)-naphtho[2,3-d]thiazole]
arteriolar diameter [1]: not the arteriolar diameter | histamine-induced vascular hyperpermeability [1]: reduces the vascular hyperpermeability | veinule diameter [1]: reduces the veinule diameter | contraction of basilar artery [2]: contracts | decrease of hyperpermeability induced by histamine [3]: 26%
